Like-named read-outs stand apart in the source and are kept apart here.
What was measured:
[1] = tested on: WT isolates; assay: MIC with 10% human serum or adjusted medium pH; assay type: cell-based
Protocol: (§1) CLSI broth microdilution (BMD) and anaerobic agar dilution (AD) methods were performed. Modifications of standard test methods included adding 10% human serum, adjusting the medium pH to 5, 6, and 8, and synergy was assessed by the checkerboard method.

[2] = tested on: Gram-positive (GP) species; assay: CLSI broth microdilution / anaerobic agar dilution MIC, spectrum study; assay type: cell-based; conditions: all GP isolates
Protocol: as §1

[3] = cited from earlier work
[4] = tested on: WT isolates; assay: Single-step mutational rates to resistance; assay type: cell-based
[5] = tested on: methicillin-resistant S. aureus (MRSA) strain USA 300; assay: Hollow fiber pharmacodynamic model, resistance potential; assay type: cell-based; conditions: 600 mg q12h
Protocol: A hollow fiber model was used to evaluate CEM-102 resistance potential in methicillin-resistant S. aureus (MRSA) strain USA 300 (Network of Antimicrobial Resistance in Staphylococcus aureus (NARSA), Chantilly, Va.). USA 300 is a highly virulent strain of MRSA and is the most common community-associated MRSA isolate in the USA. MIC values were determined in accordance with Clinical and Laboratory Standards Institute (CLSI).
The hollow fiber model comprised a two-compartment hollow fiber model (Louie et al. Antimicrob Agents Chemother 52:2486-2496(2008)) consisting of a volume of 15 mL in the central compartment, with multiple ports for the removal of broth, delivery of antibiotics, and collection of bacterial and antimicrobial samples. […] All experiments were performed in duplicate.
Hollow fibers contain 15 ml of media was prepared and inoculated with 10^6 colony forming units (CFU)/mL USA 300 bacteria. One of three different dosing regimens of […] was then applied to the fibers: (1) […] q12h; (2) 1200 mg/ml×2, followed by […], q12h; (3) 1500 mg/ml×2, followed by […], q12h.

[6] = tested on: E. brevis, M. catarrhalis and N. meningitidis; assay: CLSI MIC, spectrum study; assay type: cell-based
Protocol: as §1

[7] = tested on: GN species; assay: CLSI MIC, spectrum study; assay type: cell-based; conditions: all GN except E. brevis, M. catarrhalis, N. meningitidis
Protocol: as §1

[8] = tested on: S. aureus; assay: Reference broth microdilution susceptibility testing (CLSI M07-A8), Canadian isolates; assay type: cell-based; conditions: for number of isolates inhibited: Staphylococcus aureus; for R rate: overall S. aureus population
From the text: Methods: To determine a contemporary susceptibility (S) spectrum pattern, 153 GP isolates (123 S. aureus, 15 coagulase-negative staphylococci [CoNS] and 15 S. pyogenes [SPYO]) were collected from 5 Canadian medical centers between 2001 and 2006.

[9] = tested on: S. aureus; assay: MIC of S. aureus in humans (description); assay type: cell-based; conditions: Staphylococcus aureus
[10] = tested on: WT isolates; assay: Synergy by the checkerboard method; assay type: cell-based; conditions: FA/co-drug combination, count
Protocol: as §1

[11] = tested on: 217 S. aureus Canadian isolates; assay type: cell-based; conditions: Canadian S. aureus isolates, comparators
Protocol: as §1

In the case of `CC(=O)O[C@H]1C[C@@]2(C)[C@@H](C[C@@H](O)[C@H]3[C@@]4(C)CC[C@@H](O)[C@@H](C)[C@@H]4CC[C@@]32C)/C1=C(\CCC=C(C)C)C(=O)O` [FA, Fusidic acid], the “increase in MIC results” value ([1]; 10% serum added) was 4 fold, the “effect of lower media pH on protein binding effects” value ([1]; medium pH 5.0-6.0) was “decreased negative protein binding effects” and the “MIC values, range” value [2] was 0.06 to 32 mg/L. The protein binding [3] was 95-97%, the single-step mutational rate ([4]; 4×MIC) was 1.2×10^−6 and the single-step mutational rate ([4]; 16×MIC) was 9.8×10^−8. The “outcome in hollow fiber model” value [5] was “regrowth and development of resistance by 24 h and 48 h”, the MIC [6] was 0.12 to 0.5 mg/L and the MIC [7] was at least 2 mg/L. The number of isolates inhibited ([8]; years tested 2001-2002, read-out: No. inhibited at MIC (μg/mL) of: 0.06) was 8 µg/mL, the number of isolates inhibited ([8]; years tested 2001-2002, read-out: No. inhibited at MIC (μg/mL) of: 0.12) was 29 µg/mL and the number of isolates inhibited ([8]; years tested 2001-2002, read-out: No. inhibited at MIC (μg/mL) of: 0.25) was 1 µg/mL. It also gave a number of isolates inhibited ([8]; years tested 2001-2002, read-out: No. inhibited at MIC (μg/mL) of: ≧2) of 2 µg/mL, a number of isolates inhibited ([8]; years tested 2003-2004, read-out: No. inhibited at MIC (μg/mL) of: 0.06) of 6 µg/mL and a number of isolates inhibited ([8]; years tested 2003-2004, read-out: No. inhibited at MIC (μg/mL) of: 0.12) of 33 µg/mL. The number of isolates inhibited ([8]; years tested 2003-2004, read-out: No. inhibited at MIC (μg/mL) of: ≧2) was 3 µg/mL, the number of isolates inhibited ([8]; years tested 2005-2006, read-out: No. inhibited at MIC (μg/mL) of: 0.06) was 2 µg/mL and the number of isolates inhibited ([8]; years tested 2005-2006, read-out: No. inhibited at MIC (μg/mL) of: 0.12) was 32 µg/mL. For the same compound, the number of isolates inhibited ([8]; years tested 2005-2006, read-out: No. inhibited at MIC (μg/mL) of: 0.25) was 2 µg/mL, the number of isolates inhibited ([8]; years tested 2005-2006, read-out: No. inhibited at MIC (μg/mL) of: ≧2) was 5 µg/mL and the MIC [9] was 2.5 mg/L.

`Cc1onc(-c2ccccc2)c1C(=O)N[C@@H]1C(=O)N2[C@@H]1SC(C)(C)[C@@H]2C(=O)O` [Oxacillin] showed an Additive [10] of 1, an Antagonism [10] of 0 and an Indeterminate [10] of 1. The Indifferent [10] was 3, the “Synergy: Complete” value [10] was 0 and the “Synergy: Partial” value [10] was 1.

Compound `CO[C@H]1/C=C/O[C@@]2(C)Oc3c(C)c(O)c4c(O)c(c(/C=N/N5CCN(C)CC5)c(O)c4c3C2=O)NC(=O)/C(C)=C\C=C\[C@H](C)[C@H](O)[C@@H](C)[C@@H](O)[C@@H](C)[C@H](OC(C)=O)[C@@H]1C` [Rifampin, rifampin] has an Additive [10] of 1, an Antagonism [10] of 0 and an Indeterminate [10] of 0. For the same compound, the Indifferent [10] was 0, the “Synergy: Complete” value [10] was 0 and the “Synergy: Partial” value [10] was 5.

With `CN[C@H](CC(C)C)C(=O)N[C@H]1C(=O)N[C@@H](CC(N)=O)C(=O)N[C@H]2C(=O)N[C@H]3C(=O)N[C@H](C(=O)N[C@H](C(=O)O)c4cc(O)cc(O)c4-c4cc3ccc4O)[C@H](O)c3ccc(c(Cl)c3)Oc3cc2cc(c3O[C@@H]2O[C@H](CO)[C@@H](O)[C@H](O)[C@H]2O[C@H]2C[C@](C)(N)[C@H](O)[C@H](C)O2)Oc2ccc(cc2Cl)[C@H]1O` [Vancomycin] the Additive [10] was 2, the Antagonism [10] was 0 and the Indeterminate [10] was 0. The Indifferent [10] was 4, the “Synergy: Complete” value [10] was 0 and the “Synergy: Partial” value [10] was 0.

Work on `CCC[C@@H]1C[C@@H](C(=O)N[C@@H]([C@H]2O[C@H](SC)[C@H](O)[C@@H](O)[C@H]2O)[C@H](C)Cl)N(C)C1` [clindamycin] yielded a R rate [8] of 28.5% and a resistance rates [11] of 30.9%.

`CC[C@H]1OC(=O)[C@H](C)[C@@H](O[C@H]2C[C@@](C)(OC)[C@@H](O)[C@H](C)O2)[C@H](C)[C@@H](O[C@@H]2O[C@H](C)C[C@H](N(C)C)[C@H]2O)[C@](C)(O)C[C@@H](C)C(=O)[C@H](C)[C@@H](O)[C@]1(C)O` [erythromycin] showed a R rate [8] of 52.0% and a resistance rates [11] of 52.1%.

In the case of `C[C@H]1COc2c(N3CCN(C)CC3)c(F)cc3c(=O)c(C(=O)O)cn1c23` [levofloxacin], the Additive [10] was 0, the Antagonism [10] was 0 and the Indeterminate [10] was 2. For the same compound, the Indifferent [10] was 4, the “Synergy: Complete” value [10] was 0 and the “Synergy: Partial” value [10] was 0.

gentamicin showed an Additive [10] of 3, an Antagonism [10] of 0 and an Indeterminate [10] of 0. The Indifferent [10] was 1, the “Synergy: Complete” value [10] was 1 and the “Synergy: Partial” value [10] was 1.

From patent US8450300B2 (priority 2009, dated 2013)
